In patent US20260356856A1, “KRAS G12S AND G12C INHIBITORS” (MIRATI THERAPEUTICS, INC., priority 2023, published 2026):

Key:
KRas G12C = target: T1, KRas G12C (Homo sapiens, UniProt P01116, G12C); experiment: KRas binding assay, TR-FRET displacement of Cy5 labelled tracer; details: 60-minute incubation at room temperature, 1% DMSO, pH 7.5
T1 construct: Biotinylated KRas (corresponding to amino acids 1-169, produced at Accelegan Inc.); biotin (biotinylated); purchased Accelegan Inc
Method in brief: (§1)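 KRas aa 1-169, biotinylated; Tb-streptavidin donor; 1% DMSO final. Buffer: HEPES 50 mM (pH 7.5), MgCl2 5 mM, DTT 1 mM, Tween-20 0.005%. 60 min, RT. IC50 from 4-parameter fit of POC.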

KRas G12S = target: T2, KRas G12S (Homo sapiens, UniProt P01116, G12S); experiment: as above; details: 60-minute incubation at room temperature, 1% DMSO, pH 7.5
T2 construct: Biotinylated KRas (corresponding to amino acids 1-169, produced at Accelegan Inc.); biotin (biotinylated); purchased Accelegan Inc
T2 sequence (P01116 1-169 isoform P01116-2 G12S): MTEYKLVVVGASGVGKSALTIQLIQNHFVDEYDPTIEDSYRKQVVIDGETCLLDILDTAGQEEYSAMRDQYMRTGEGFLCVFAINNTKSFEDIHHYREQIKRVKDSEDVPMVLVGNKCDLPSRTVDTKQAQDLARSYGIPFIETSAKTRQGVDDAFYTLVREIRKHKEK
Method in brief: as §1

KRas WT = target: T3, KRas WT (Homo sapiens, UniProt P01116); experiment: as above; details: 60-minute incubation at room temperature, 1% DMSO, pH 7.5
T3 construct: Biotinylated KRas (corresponding to amino acids 1-169, produced at Accelegan Inc.); biotin (biotinylated); purchased Accelegan Inc
T3 sequence (P01116 1-169 isoform P01116-2): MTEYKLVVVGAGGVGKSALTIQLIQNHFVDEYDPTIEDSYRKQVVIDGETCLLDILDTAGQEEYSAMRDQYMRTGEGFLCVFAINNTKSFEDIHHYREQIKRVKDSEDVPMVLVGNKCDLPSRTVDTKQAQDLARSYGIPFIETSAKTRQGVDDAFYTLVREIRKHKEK
Method in brief: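 Assay buffer was HEPES (50 mM, pH 7.5) with MgCl2 (5 mM), DTT (1 mM) and Tween-20 (0.005%). Biotinylated KRas spanning residues 1-169 met tracer, terbium streptavidin and compound (1% DMSO, final) for 60 minutes at ambient temperature before reading. POC values were fitted for IC50.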

[1] = target: T4, KRas-mediated phosphorylation of ERK in MKN1 cells (Homo sapiens, UniProt P01116); experiment: Inhibition of KRas-mediated phosphorylation of ERK (HTRF), MKN1 cells; assay type: cell-based; details: MKN1 cells (KRas WT); HTRF pERK; 3 h incubation
T4 construct: pERK HTRF read-out
T4 sequence (P01116 1-188 isoform P01116-2): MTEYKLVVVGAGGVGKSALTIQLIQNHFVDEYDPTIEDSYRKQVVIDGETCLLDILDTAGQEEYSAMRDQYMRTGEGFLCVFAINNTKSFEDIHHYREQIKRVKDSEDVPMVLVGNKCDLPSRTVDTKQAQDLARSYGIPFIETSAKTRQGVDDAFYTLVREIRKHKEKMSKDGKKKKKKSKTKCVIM
Protocol: Inhibition of KRas Phosphorylation of ERK (HTRF) by Exemplary Compounds of Formula (Ia) or (Ib)
Cisbio HTRF Advanced pERK Assay Catalog #64AERPEH • Cells: MKN1, PSN1 • Procedure: • 1. Day 1: Seed 6,000 cells/well −25 μl/well in 384-well white solid bottom plate; RPM1_10% FBS. Incubate overnight at 37 °C/5% CO2. • 2.

[2] = target: T5, KRas-mediated phosphorylation of ERK in A549 cells (Homo sapiens, UniProt P01116, G12S); experiment: Inhibition of KRas-mediated phosphorylation of ERK (HTRF), A549 cells; assay type: cell-based; details: HTRF pERK, 3 h incubation
T5 construct: pERK HTRF read-out
T5 sequence (P01116 1-188 isoform P01116-2 G12S): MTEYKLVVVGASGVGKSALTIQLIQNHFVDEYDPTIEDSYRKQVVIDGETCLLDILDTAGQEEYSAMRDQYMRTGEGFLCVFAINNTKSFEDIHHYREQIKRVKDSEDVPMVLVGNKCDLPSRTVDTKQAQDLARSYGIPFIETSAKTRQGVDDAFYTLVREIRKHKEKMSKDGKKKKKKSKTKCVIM

[3] = target: T6, KRas-mediated phosphorylation of ERK in H358 cells (Homo sapiens, UniProt P01116, G12C); experiment: Inhibition of KRas-mediated phosphorylation of ERK (HTRF), H358 cells; assay type: cell-based; details: HTRF pERK, 3 h incubation
T6 construct: pERK HTRF read-out
T6 sequence (P01116 1-188 isoform P01116-2 G12C): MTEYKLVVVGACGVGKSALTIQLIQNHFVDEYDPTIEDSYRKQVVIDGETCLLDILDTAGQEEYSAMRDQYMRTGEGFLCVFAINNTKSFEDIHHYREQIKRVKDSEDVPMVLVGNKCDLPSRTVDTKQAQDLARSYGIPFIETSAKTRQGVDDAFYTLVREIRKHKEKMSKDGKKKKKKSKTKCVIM

T1 sequence (P01116 1-169 isoform P01116-2 G12C): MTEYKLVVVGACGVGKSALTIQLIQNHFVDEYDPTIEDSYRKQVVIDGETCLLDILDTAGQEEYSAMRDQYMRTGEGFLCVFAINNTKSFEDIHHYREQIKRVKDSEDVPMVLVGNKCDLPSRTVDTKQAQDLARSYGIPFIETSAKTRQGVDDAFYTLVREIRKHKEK

SMILES	IC50 (KRas G12C) [nM]	IC50 (KRas G12S) [nM]	IC50 (KRas WT) [nM]	IC50 [1] [nM]	IC50 [2] [nM]	IC50 [3] [nM]
N#Cc1c(N)sc2c(F)ccc(-c3c(Cl)cc4c(N5CCC(C(=O)Oc6ccc(F)cc6)CC5)nc(OC[C@@]56CCCN5C[C@H](F)C6)nc4c3F)c12 [Example 299, 4-fluorophenyl 1-(7-(2-amino-3-cyano-7-fluorobenzo[b]thiophen-4-yl)-6-chloro-8-fluoro-2-(((2R,7aS)-2-fluorotetrahydro-1H-pyrrolizin-7a(5H)-yl)methoxy)quinazolin-4-yl)piperidine-4-carboxylate]	9	22	178	323	93	12
CC(=O)N(C)C(=O)C1CCN(c2nc(OC[C@@]34CCCN3C[C@H](F)C4)nc3c(F)c(-c4ccc(F)c5sc(N)c(C#N)c45)c(Cl)cc23)CC1 [Example 253, N-acetyl-1-(7-(2-amino-3-cyano-7-fluorobenzo[b]thiophen-4-yl)-6-chloro-8-fluoro-2-(((2R,7aS)-2-fluorotetrahydro-1H-pyrrolizin-7a(5H)-yl)methoxy)quinazolin-4-yl)-N-methylpiperidine-4-carboxamide]	8	8	10	37	14	61
Cc1ccn(C(=O)C2CCCN(c3nc(OC[C@@]45CCCN4C[C@H](F)C5)nc4c(F)c(-c5nc(N)ccc5C)c(Cl)cc34)CC2)n1 (stereo partly drawn) [Example 222, (1-(7-(6-amino-3-methylpyridin-2-yl)-6-chloro-8-fluoro-2-(((2R,7aS)-2-fluorotetrahydro-1H-pyrrolizin-7a(5H)-yl)methoxy)quinazolin-4-yl)azepan-4-yl)(3-methyl-1H-pyrazol-1-yl)methanone]	18300	3410	29600	8260	1970	> 10000
CCc1c(F)ccc2cc(O)cc(-c3ncc4c(N5CCC(C)(C(=O)n6ccc(C)n6)CC5)nc(OC[C@@]56CCCN5C[C@H](F)C6)nc4c3F)c12 [Example 83, (1-(7-(8-ethyl-7-fluoro-3-hydroxynaphthalen-1-yl)-8-fluoro-2-(((2R,7aS)-2-fluorotetrahydro-1H-pyrrolizin-7a(5H)-yl)methoxy)pyrido[4,3-d]pyrimidin-4-yl)-4-methylpiperidin-4-yl)(3-methyl-1H-pyrazol-1-yl)methanone]	107	402	790	2990	1170	1410
CCc1c(F)ccc2cc(O)cc(-c3ncc4c(N5CC(CC(=O)n6ccc(C)n6)C5)nc(OC[C@@]56CCCN5C[C@H](F)C6)nc4c3F)c12 [Example 84, 2-(1-(7-(8-ethyl-7-fluoro-3-hydroxynaphthalen-1-yl)-8-fluoro-2-(((2R,7aS)-2-fluorotetrahydro-1H-pyrrolizin-7a(5H)-yl)methoxy)pyrido[4,3-d]pyrimidin-4-yl)azetidin-3-yl)-1-(3-methyl-1H-pyrazol-1-yl) ethan-1-one]	53	7	154	6390	55	7600
CN(CCCC(=O)Oc1c(F)cccc1F)c1nc(OC[C@@]23CCCN2C[C@H](F)C3)nc2c(F)c(-c3ccc(F)c4sc(N)c(C#N)c34)c(Cl)cc12 [Example 265, 2,6-difluorophenyl 4-((7-(2-amino-3-cyano-7-fluorobenzo[b]thiophen-4-yl)-6-chloro-8-fluoro-2-(((2R,7aS)-2-fluorotetrahydro-1H-pyrrolizin-7a(5H)-yl)methoxy)quinazolin-4-yl)(methyl)amino)butanoate]	3	12	35	844	271	370
CN(CCN(C)c1nc(OC[C@@]23CCCN2C[C@H](F)C3)nc2c(F)c(-c3ccc(F)c4sc(N)c(C#N)c34)c(Cl)cc12)C(=O)n1nccn1 (single isomer, unassigned) [Example 202]	< 2	2	4	142	1480	23
CCc1c(F)ccc2cc(O)cc(-c3ncc4c(N5CCOCC(C(=O)n6ccc(C)n6)C5)nc(OC[C@@]56CCCN5C[C@H](F)C6)nc4c3F)c12 (stereo partly drawn) [Example 77, (4-(7-(8-ethyl-7-fluoro-3-hydroxynaphthalen-1-yl)-8-fluoro-2-(((2R,7aS)-2-fluorotetrahydro-1H-pyrrolizin-7a(5H)-yl)methoxy)pyrido[4,3-d]pyrimidin-4-yl)-1,4-oxazepan-6-yl)(3-methyl-1H-pyrazol-1-yl)methanone]	159	87	161	4560	> 10000	1360
Cc1ccn(C(=O)CCCNc2cc(O[C@@H](C)[C@@H]3CCCN3C)nc(-c3noc([C@]4(C)CCCc5sc(N)c(C#N)c54)n3)n2)n1 [Example 324, (R)-2-amino-4-methyl-4-(3-(4-((4-(3-methyl-1H-pyrazol-1-yl)-4-oxobutyl)amino)-6-((S)-1-((S)-1-methylpyrrolidin-2-yl)ethoxy)pyrimidin-2-yl)-1,2,4-oxadiazol-5-yl)-4,5,6,7-tetrahydrobenzo[b]thiophene-3-carbonitrile]	< 2	< 2	19	651	9	262
CC(=O)N(C)C(=O)CCCNc1nc(OC[C@@]23CCCN2C[C@H](F)C3)nc2c(F)c(-c3ccc(F)c4sc(N)c(C#N)c34)c(Cl)cc12 [Example 258, N-acetyl-4-((7-(2-amino-3-cyano-7-fluorobenzo[b]thiophen-4-yl)-6-chloro-8-fluoro-2-(((2R,7aS)-2-fluorotetrahydro-1H-pyrrolizin-7a(5H)-yl)methoxy)quinazolin-4-yl)amino)-N-methylbutanamide]	3	4	9	84	29	38
CN(CCCC(=O)N(C)c1ccccn1)c1nc(OC[C@@]23CCCN2C[C@H](F)C3)nc2c(F)c(-c3ccc(F)c4sc(N)c(C#N)c34)c(Cl)cc12 [Example 200, 4-((7-(2-amino-3-cyano-7-fluorobenzo[b]thiophen-4-yl)-6-chloro-8-fluoro-2-(((2R,7aS)-2-fluorotetrahydro-1H-pyrrolizin-7a(5H)-yl)methoxy)quinazolin-4-yl)(methyl)amino)-N-methyl-N-(pyridin-2-yl) butanamide]	2	4	5	86	729	112
CN(C(=O)CCCN(C)c1nc(OC[C@@]23CCCN2C[C@H](F)C3)nc2c(F)c(-c3ccc(F)c4sc(N)c(C#N)c34)c(Cl)cc12)C(=O)c1cnn(C)c1 [Example 306, N-(4-((7-(2-amino-3-cyano-7-fluorobenzo[b]thiophen-4-yl)-6-chloro-8-fluoro-2-(((2R,7aS)-2-fluorotetrahydro-1H-pyrrolizin-7a(5H)-yl)methoxy)quinazolin-4-yl)(methyl)amino)butanoyl)-N, 1-dimethyl-1H-pyrazole-4-carboxamide]	5	7	10	134	92	45
CCc1c(F)ccc2cc(O)cc(-c3ncc4c(N5CCC(C(=O)n6ccc(C(C)(C)C)n6)CC5)nc(OC[C@@]56CCCN5C[C@H](F)C6)nc4c3F)c12 [Example 75, (3-(tert-butyl)-1H-pyrazol-1-yl)(1-(7-(8-ethyl-7-fluoro-3-hydroxynaphthalen-1-yl)-8-fluoro-2-(((2R,7aS)-2-fluorotetrahydro-1H-pyrrolizin-7a(5H)-yl)methoxy)pyrido[4,3-d]pyrimidin-4-yl)piperidin-4-yl)methanone]	234	346	378	1390	312	3110
CCc1c(F)ccc2cc(O)cc(-c3ncc4c(N5CCCC(C(=O)n6ccc(C)n6)C5)nc(OC[C@@]56CCCN5C[C@H](F)C6)nc4c3F)c12 (stereo partly drawn) [Example 65, (1-(7-(8-ethyl-7-fluoro-3-hydroxynaphthalen-1-yl)-8-fluoro-2-(((2R,7aS)-2-fluorotetrahydro-1H-pyrrolizin-7a(5H)-yl)methoxy)pyrido[4,3-d]pyrimidin-4-yl)piperidin-3-yl)(3-methyl-1H-pyrazol-1-yl)methanone]	28	14	17	266	> 10000	415
